We go through 1 substance from patent publication US8785400B2, “Methods and compositions relating to islet cell neogenesis” (CureDM Group Holdings, LLC, priority 2006, dated 2014).

Assay [1] deals with streptozocin-induced diabetic mouse. Briefly: Streptozocin-induced diabetic mouse (Example 6). The format is in vivo. The text has this: The streptozocin-induced diabetic mouse is a convenient animal model of type 1 diabetes because researchers are able to chemically induce diabetes under controlled conditions rather than waiting for mice to become diabetic naturally or by forcing diabetes through prescribed obesity. Based on experience with the streptozocin model in the rat, a high degree of variability was anticipated for the induction of the disease in mice and therefore 60 mice were induced with streptozocin. Mice were injected intraperitoneally with streptozocin at 40 mg/kg in citrate buffer, pH4.5, on 5 consecutive days in an attempt to render them diabetic. A mouse was considered diabetic once its blood glucose level was greater than 16.7 mmol/L (300 mg/dL) for at least 1 week. If the blood glucose level of any animal became too high (>400 mg/dL) the animal was treated with an effective amount of insulin. In this example, 60 male mice, ranging from 6-8 weeks old at the outset of the study, were treated with streptozocin as described above. Those mice that were declared diabetic were then used to test the effectiveness of HIP2 as compared to other test agents.
Animals were group housed in compliance with the National Research Council “Guide for the Care and Use of Laboratory Animals”. The animals received 12 hours light/12 hours dark, except when room lights were turned on during the dark cycle to accommodate study procedures. Room temperature was maintained between 18 to 26° C. at all times. Relative humidity was maintained between 30-70% at all times. All animals were given access to Harlan Teklad Rodent Diet or equivalent and tap water via water bottle. Animals were allowed to acclimate to their new environment for a minimum of 7 days prior to first dosing.
Mice were randomly divided and assigned to study groups. Each study group was assigned treatment with one of 5 test agents (see Treatment section below). Prior to being treated, each mouse was tested for diabetes via monitoring their blood glucose levels. After confirmation that the mice were diabetic (blood glucose levels greater than 16.7 mmol/L (300 mg/dL) for at least 1 week) the mice were dosed with their respective test agent.
Each study group received doses of one of the following test agents: HIP2, HIP1, HIP, Hamster INGAP (SEQ ID NO:1) or isotonic saline “Vehicle” (0.9% NaCl) (negative control). Mice were given doses of their respective agent interperitoneally twice daily (am and pm, +/−2 hours for each administration) at 250 ug/dose, in 100 ul dose volume, for 28 consecutive days. Test agents were prepared once daily by dissolving the appropriate amount of test agent in isotonic saline to result in a 2.5 mg/ml solution. Blood glucose levels were tested every 3 days, at the same time each day, using a glucometer. If the blood glucose level in any animal became too high, the animal was treated with insulin. At the end of the treatment, all surviving animals were euthanized by CO2 asphyxiation following terminal blood collection. Blood samples were collected under CO2 cardiocentesis. The plasma was separated and then frozen at −80° C. For histological analysis, the pancreas from each mouse was removed and snap-frozen.
(§1) Blood glucose levels are measured every 3 days and tracked to evaluate differences in glucose levels.

For another assay, the system named is NOD mice. Briefly: NOD mouse model of type 1 diabetes (Example 5). The format is in vivo. To be noted: 250 ug/dose i.p. twice daily, 28 days, with anti-CD3, vs other test agents.
From the text: The non-obese diabetic (NOD) mouse strain has long been studied as an excellent model of type 1 diabetes because it spontaneously develops a disease that is very similar to the human condition. Diabetes in NOD mice is mediated by inflammatory autoreactive T cells that recognize pancreatic islet antigens and escape central and peripheral tolerance. In a parental colony of NOD mice, incidence of diabetes in female NOD mice is typically 75-90% by 30 weeks but may exceed 90% in some cohorts. In this example, 50 female NOD mice, ranging from 13-14 weeks old at the outset of the study, are used to test the effectiveness of HIP2 as compared to other test agents. Due to the unexpected variability of the degree of onset of disease, the number used in this example (50 female mice) is considered to be the minimum needed to result in a sufficient number of mice that will onset with disease within the timeframe of the study.
Animals were group housed in compliance with the National Research Council “Guide for the Care and Use of Laboratory Animals”. The animals received 12 hours light/12 hours dark, except when room lights were turned on during the dark cycle to accommodate study procedures. Room temperature was maintained between 18 to 26° C. at all times. […]
as §1

Assay [2] has as its system human pancreatic islet tissue cultures. Briefly: Insulin production by ELISA, human islet tissue cultures (Example 3). The format is cell-based. The settings on record: vs SEQ ID NO:1 and SEQ ID NO:5. The method, then: Samples are 0.002 μg total protein in duplicate and measured by ELISA assay.
(§2) Values are mean insulin units (of duplicate samples) as measured by ELISA assay.
(§3) Human pancreatic tissue was treated as described in Example 1 and Insulin production was measured by ELISA assay. FIGS. 5 and 6 show the results of this experiment to show a dose response and to again compare the effect of HIP2 on the two different fractions of tissue as compared to the hamster INGAP sequence and a scrambled negative peptide sequence. […] The results in FIG. 5 were generated using 5 μg of each peptide, while the results in FIG. 6 were acquired using 0.002 μg of each peptide.
In general terms: ELISA stands for enzyme-linked immunosorbent assay.

Assay [3] deals with pancreatic islets of treated mice. Briefly: Quantitative immunohistochemistry image analysis of mouse pancreata (Example 7). The format is in vivo. To be noted: vs control. The text has this:
The islet mass of the placebo group was 854,362 μm (2) compared with 2,161,782 μm (2) in HIP-treated mice.
Islet size was not different between HIP treated and control group, whereas, islet number and mass was increased.

The subject of assay [4] is human pancreatic ductal tissue cultures. Briefly: Insulin production by ELISA, human ductal tissue cultures (Example 3). The format is cell-based. The method, then: Samples are 5 μg total protein in duplicate and measured by ELISA assay.
as §2, §3

In assay [5] the test system is human pancreatic progenitor cells. Briefly: Inverted microscopy of human ductal/progenitor tissue cultures (Example 4). The format is cell-based.
The mark [6] stands for this setting: streptozocin mice, 250 ug/dose i.p. twice daily, 28 days, vs other test agents.

In the case of “HIP2: Human proIslet Peptide, fragment of human REG3A, in purified, synthetic, or recombinant form (SEQ ID NO:4) (IGLHDPTQGTEPNG; Fragment of naturally occurring human REG3 protein)”, the “time at which mice were completely insulin-free” value in assay [1] is at most 21 days. For the same substance, the “glucose levels from baseline compared with control” value in assay [1] (streptozocin mice) is given as “significant reduction”. In addition, in assay [1] (setting [6]), the blood glucose levels entry is “pronounced reduction” and the “insulinitis in the pancreas” value is listed as “decreased showing of insulinitis”. Further, the “insulin requirements (and rate of decrease)” value in assay [1] (streptozocin mice, compared to placebo) is recorded as “Significant reductions”. In the assay on NOD mice, the blood glucose levels entry was “pronounced reduction” and the insulinitis in pancreas entry was “decreased showing of insulinitis”. The “insulin production (FIG. 6)” value in assay [2] (after 10 days, Rosenberg protocol, 0.002 μg) was “increased insulin production”. For the same substance, in assay [2] (two concentrations (3 μM and 1 mM)), the “insulin production (FIG. 8A)” value was “increased insulin production”. In assay [3], the “total islet mass (qualitative)” value was “increased total islet mass” and the “total islet number (qualitative)” value is given as “increased total islet number”. Further, the “effect of the higher concentration on insulin production” value in assay [4] (ductal cultures) was “more profound effect”. Besides, the “insulin production (FIG. 5)” value in assay [4] (ductal cultures, after 10 days, Rosenberg protocol, 5 μg, vs SEQ ID NO:1 and SEQ ID NO:5) is “increased insulin production”. Further, the “insulin production (FIG. 8B)” value in assay [4] (ductal cultures, two concentrations (3 μM and 1 mM), vs SEQ ID NO:1 and SEQ ID NO:5) is reported as “increased insulin production”. In assay [4] (in each of the examples (ductal and islet fractions)), the “induction of insulin production compared with INGAP or scrambled peptide” value is on record as “more effectively”. Also, in assay [5] (after treatment, just before lysis and RIA), the “morphology of ductal tissue culture fraction (FIG. 4)” value was “Morphological changes show islet like structure”. For the same substance, the “morphology of progenitor tissue cultures (FIG. 7A)” value in assay [5] (day 2 of treatment (day 12)) is recorded as “starting to bud at one end where a progenitor cell resides”. In addition, the “morphology of progenitor tissue cultures (FIG. 7B)” value in assay [5] (day 6 of treatment (day 18)) is on record as “darkening of the budding portion of the ductal epithelial cyst indicates the differentiation of cells”. Also, in assay [5] (pancreatic ductal tissue fraction culture, six days of culture with peptide), the “islet structure formation (micrograph, FIG. 4A)” value was “New islet structure has formed”.
